Data on 2 molecules can be found in patent US20250304578A1, “NITROGEN-CONTAINING FUSED HETEROCYCLIC COMPOUNDS OF N-SULFONAMIDE AND USE THEREOF” (NUTSHELL THERAPEUTICS (SHANGHAI) CO., LTD., priority 2023, published 2025).

Where two headings read alike, the source gives them in different places. Where only a bound is given, the exact number is not on record here.

Data set [1] in a line: Metabolic stability test in hepatocytes. In kind it is in vitro ADME. Conditions: cryopreserved hepatocytes in suspension; for hepatocyte CLint at 1 μM: read-out: In vitro Clint (μL/min/10^6 cells); for half-life at 1 μM: read-out: In vitro t1/2. As for the experimental part:
The test compound and the control drug verapamil powder were prepared into a high concentration stock solution using DMSO, and diluted to a 100 μM working solution with 50% acetonitrile/water before use, with final concentrations of 1 μM for the test compound and verapamil.
• 1) 49.5 mL of Williams' Medium E and 0.5 mL GlutaMAX were mixed as the incubation solution. The hepatocyte recovery solution and the incubation solution were pre-warmed in a 37° C. water bath for at least 15 minutes prior to use. • 2) A tube of cryopreserved hepatocytes was taken, ensuring that the hepatocytes were still in a cryogenic frozen state prior to resuscitation. The hepatocytes were quickly placed in a 37° C. water bath and gently shaken until all ice crystals were completely dispersed, sprayed with 70% ethanol and transferred to a biosafety cabinet. • 3) The contents of the hepatocyte tube were poured into a centrifuge tube containing 50 mL of recovery medium, which were centrifuged at 100 g for 10 minutes. After centrifugation, the recovery medium was aspirated, and sufficient incubation medium was added to obtain a cell suspension having a cell density of approximately 1.5×10^6 cells/mL. • 4) Cellometer Vision was used to count hepatocytes and determine the density of viable cells. The survival rate of hepatocytes must be greater than 75%. The hepatocyte suspension was diluted with incubation medium to a viable cell density of 0.5×10^6 cells/mL. • 5) A portion of hepatocyte suspension with a density of 0.5×10^6 cells/mL was boiled in water for 5 minutes to inactivate as a negative control. After cells were inactivated, substrate conversion mediated by non-cellular enzymes could be easily investigated.
• 1) 198 μL of the suspension of live or inactivated cells was transferred to a 96-well deep-well plate, which was then placed on a vortexer and preheated in an incubator for 10 minutes. Live cells were incubated in duplicate, while inactivated cells were incubated in single. • 2) 2 μL of 100 μM test compound or verapamil was added to each well for the reaction initiation, and the deep-well plate was placed back on the incubator vortexer. • 3) 25 μL of the suspension were taken from the incubated samples at 0, 15, 30, 60, 90, and 120 minutes, respectively, and added to 150 μL of acetonitrile containing internal standards (200 nM alprazolam, 200 nM labetalol, 2 μM ketoprofen, and 200 nM caffeine) to terminate the reaction. The mixture was vortexed for 10 minutes and centrifuged at 3220 g and 4° C. for 30 minutes. After centrifugation was completed, 100 μL of the supernatant and 100 μL of ultra-pure water were mixed well for UPLC-MS/MS analysis detection.
All data calculations were performed using Microsoft Excel software. Peak areas were detected by extracting the ion chromatogram. The in vitro half-life (t1/2) of the parent drug was detected by linear fitting of the natural logarithm of the percentage of parent drug […] with time.
The in vitro half-life (t1/2) was calculated by the slope: […]
In vitro intrinsic clearance (unit μL/min/10^6 cells) was calculated using the following formula:
[formula] • V=incubation volume per well (0.2 mL); • N=number of cells per well (0.1×10^6 cells)

The test system of a further data set is CYP3A4/5. Description: Multi-concentration inhibitory activity curve of CYP3A4/5 enzymes. The format is in vitro ADME. To be noted: human liver microsomes. As for the experimental part: The buffer was filtered through a 0.45 μm filter.
Liver microsome working solution (final system concentration of 0.5 mg/mL) was prepared. […] The above stock solution was diluted with acetonitrile (4-fold dilution, 6 non-zero concentrations).
The half-maximal inhibitory concentration (IC50) was calculated using Graph Pad Prism.

A further data set concerns NUGC-3 cells. The data set can be described thus: Anti-proliferation effect on NUGC-3 cells (Cell Counting Kit-8). In kind it is cell-based. Conditions: Homo sapiens, NUGC-3, 120 h; 5 days of treatment. As for the experimental part:
Cell line NUGC-3 (JCRB, JCRB0822) was cultured in RPMI 1640 (Invitrogen, 11875-085) medium supplemented with 10% (v/v) fetal bovine serum (BI, 04-002-1A), according to the standard instructions of the American Type Culture Collection. The cell line was authenticated by short tandem repeat profiling.
In the proliferation assay, 1000 NUGC-3 cells were seeded in a 96-well flat clear bottom, TC-treated plate (Corning, 3903) in 200 μL of medium per well, and allowed to recover overnight in culture medium. Compounds were added with increasing concentration, with DMSO treatment serving as a […] control. After 5 days of treatment, the plate was equilibrated to room temperature for 30 minutes, and the number of living cells was measured by the addition of the Cell Counting Kit-8 reagent (MCE, HY-K0301). Absorbance was measured on an Enspire (Perkin elme). The relative viability of each group was presented as the percentage change relative to the […] control group and then fit to a four-parameter logit non-linear curve using the program XLFit (IDBS)

Data set [2] has as its target voltage-gated potassium channel hERG (Homo sapiens (Human), UniProt Q12809). Description: hERG potassium channel inhibitory activity test (manual patch clamp, HEK293). The format is cell-based. Conditions: HEK293 cells stably expressing hERG.
Experimental: This experiment was conducted to detect the effect of compounds in five concentrations on hERG channel current, obtaining a dose-effect curve and calculating the IC50.
Cell line and cell culture: HEK293 cell line stably expressing the hERG ion channel (Cat. No.: K1236) was purchased from Invitrogen Company. […] When the cell density grows to 40% to 80% of the bottom area of the culture dish, the cells were digested with trypsin and passaged three times per week. Prior to the experiment, cells were cultured in a 3.5 cm culture dish at a density of 5×10^5, induced with 1 μg/mL doxycycline for 48 hours, and then the cells were digested and seeded on glass slides for subsequent manual patch clamp experiments. […]
Experimental procedure: A coverslip loaded with HEK293 cells in a culture dish was placed in the perfusion chamber of the microscope stage. […] The hERG current used to detect the test compound was continuously recorded for 120 seconds before administration to evaluate the stability of the hERG current generated by the test cells. […] Test of the inhibitory effect of the test compound on hERG current: First, the hERG current measured in the extracellular fluid containing 0.1% DMSO was used as the detection baseline. […] After each perfusion was completed, approximately 5 minutes were waited to allow the compounds to fully act on the cells, and hERG currents were synchronously recorded.
Setting [3] is: pH 7.4, probe midazolam, substrate midazolam, read-out: CYP3A4/5 IC50 (μM) (Midazolam).
[4] abbreviates: pH 7.4, probe testosterone, substrate testosterone, read-out: CYP3A4/5 IC50 (μM) (Testosterone).

Sequence of voltage-gated potassium channel hERG (Q12809 whole entry): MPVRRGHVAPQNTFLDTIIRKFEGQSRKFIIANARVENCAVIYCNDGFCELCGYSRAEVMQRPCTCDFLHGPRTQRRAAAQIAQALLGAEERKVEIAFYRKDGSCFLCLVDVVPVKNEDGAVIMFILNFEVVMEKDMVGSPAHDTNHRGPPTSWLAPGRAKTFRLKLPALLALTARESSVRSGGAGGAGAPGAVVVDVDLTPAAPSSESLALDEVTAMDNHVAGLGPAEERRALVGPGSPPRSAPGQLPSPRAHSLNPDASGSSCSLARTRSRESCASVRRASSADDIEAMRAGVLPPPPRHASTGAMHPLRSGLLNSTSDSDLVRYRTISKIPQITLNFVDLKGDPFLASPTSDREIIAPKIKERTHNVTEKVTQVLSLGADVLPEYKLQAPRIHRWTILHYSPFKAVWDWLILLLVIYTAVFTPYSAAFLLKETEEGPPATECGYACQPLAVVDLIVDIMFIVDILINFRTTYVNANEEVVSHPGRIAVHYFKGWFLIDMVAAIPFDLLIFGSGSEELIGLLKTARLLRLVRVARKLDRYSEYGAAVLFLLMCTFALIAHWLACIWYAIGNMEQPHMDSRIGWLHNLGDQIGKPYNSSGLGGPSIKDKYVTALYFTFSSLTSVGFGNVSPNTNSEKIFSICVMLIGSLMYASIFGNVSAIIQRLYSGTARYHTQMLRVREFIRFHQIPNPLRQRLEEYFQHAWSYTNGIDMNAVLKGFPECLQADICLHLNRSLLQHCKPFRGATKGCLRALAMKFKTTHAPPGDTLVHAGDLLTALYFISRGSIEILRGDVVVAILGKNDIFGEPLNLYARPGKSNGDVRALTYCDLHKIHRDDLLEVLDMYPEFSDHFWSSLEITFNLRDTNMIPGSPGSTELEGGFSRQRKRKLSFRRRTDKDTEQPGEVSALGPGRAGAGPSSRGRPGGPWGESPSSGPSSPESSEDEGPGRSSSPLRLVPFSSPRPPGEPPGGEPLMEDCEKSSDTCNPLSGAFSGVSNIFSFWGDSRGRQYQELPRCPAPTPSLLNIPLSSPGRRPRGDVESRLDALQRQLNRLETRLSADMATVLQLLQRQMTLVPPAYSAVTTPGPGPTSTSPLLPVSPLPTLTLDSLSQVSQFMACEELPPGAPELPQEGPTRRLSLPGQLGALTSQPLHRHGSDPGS

`[2H]C([2H])([2H])Oc1nc(C(=O)NS(C)(=O)=O)ccc1NCC#Cc1cc2c(N[C@@H]3CCN(C)C[C@@H]3F)cccn2c1CC(F)(F)F` [Cpd-2, 5-((3-(8-(((3S,4R)-3-Fluoro-1-methylpiperidin-4-yl)amino)-3-(2,2,2-trifluoroethyl)indolizin-2-yl)prop-2-yn-1-yl)amino)-6-(methoxy-d3)-N-(methylsulfonyl)picolinamide]: the hepatocyte CLint at 1 μM in data set [1] (Human hepatocytes), in data set [1] (Mouse hepatocytes) and in data set [1] (Rat hepatocytes) was less than 2.7 µL/min/1e6 cells each time. Moreover, the half-life at 1 μM in data set [1] (Human hepatocytes), in data set [1] (Mouse hepatocytes) and in data set [1] (Rat hepatocytes) was greater than 8.52 h each time. In addition, the IC50 at 10 min in the data set with CYP3A4/5 (setting [3]) and with CYP3A4/5 (setting [4]) was greater than 50 µM in each case. Moreover, the IC50 with NUGC-3 cells was 0.058 µM; in data set [2], greater than 30 µM.

Consider `COc1nc(C(=O)NS(C)(=O)=O)ccc1NCC#Cc1cc2c(N[C@@H]3CCN(C)C[C@@H]3F)cccn2c1CC(F)(F)F` [Cpd-1, 5-((3-(8-(((3S,4R)-3-Fluoro-1-methylpiperidin-4-yl)amino)-3-(2,2,2-trifluoroethyl)indolizin-2-yl)prop-2-yn-1-yl)amino)-6-methoxy-N-(methylsulfonyl)picolinamide], for which the hepatocyte CLint at 1 μM in data set [1] (Human hepatocytes), in data set [1] (Mouse hepatocytes) and in data set [1] (Rat hepatocytes) was less than 2.7 µL/min/1e6 cells throughout. For the same molecule, the half-life at 1 μM in data set [1] (Human hepatocytes), in data set [1] (Mouse hepatocytes) and in data set [1] (Rat hepatocytes) was greater than 8.52 h each time. The IC50 at 10 min in the data set on CYP3A4/5 (setting [3]) and with CYP3A4/5 (setting [4]) was greater than 50 µM in each case. In addition, the IC50 was 0.1 µM with NUGC-3 cells and greater than 30 µM in data set [2].
